Measured values reported in patent US20110135651A1, “METHOD AND COMPOSITION FOR ENHANCING HEMATOPOIETIC STEM CELL MOBILIZATION” (Children's Hospital Medical Center, priority 2008, published 2011).
Blank lines part the entries; values can stand above or below the molecule they belong to.

Legend:
[1] = test system: hematopoietic stem and progenitor cells (HSPCs); test: G-CSF induced HSPC mobilization, colony forming cell (CFC) assay of peripheral blood; type: in vivo, mice
Procedure: As mobilization efficiency of HSPC is a quantitative trait, quantitative trait locus (QTL) analysis was chosen as an approach to identify regulators of mobilization efficiency. Mice were mobilized with huG-CSF (Amgen) at 12.5 μg/ml in PBS/0.1% BSA and administered i.p. at 100 μg/kg/day once a day for 5 days and animals were analyzed on day 6. Murine recombinant EGF (0.2-3.6 μg/g) (Prepro tech, Rocky Hill, N.J.) was dissolved in PBS and administered i.p. on the last day of the G-CSF regimen. Erlotinib (2.5-100 mg/kg) was dissolved in methylcellulose and administered by gavage on day 3, 4, and 5 of the G-CSF regimen. A specific Cdc42 inhibitor (0.5 mg/ml) was dissolved in PBS containing 15% ethanol and administered by tail vain 18 h after the last G-CSF injection. Mobilization efficiency was determined with HSPC obtained approximately 14-16 hours after the last injection received by the group of mice.
Colony forming cell assays. 150 μl of peripheral blood (PB) was added to Hank's balanced salt solution (HBSS) and mixed with 4 ml of methylcellulose (Stem Cell Technologies) containing 50 ng/ml rm SCF, 10 ng/ml rm IL-3 and 10 ng/ml rh JL-6 and incubated at 37° C. Samples were plated in triplicate in 6 well plates (Falcon) and colonies of more than 50 cells were counted between 7 to 10 days. CFC counts were also determined in spleen (1×10^5) using the same protocol. The results are presented as mean±s.d. A paired student's t-test was used to determine the significance of the difference between means of two groups. Values were considered significant when p<0.05.

[2] = test system: hematopoietic stem cells; test: Competitive transplantation of mobilized peripheral blood to measure stem cell frequency (donor chimerism); type: in vivo, mice
Procedure: Transplantations/Competitive transplantations. BM cells were harvested and pooled from the tibia and the femur of 6-8 week old mice (donor) as well as B6.5JL(BoyJ) (competitor) mice. […] BM cells were subsequently transplanted into the retro-orbital sinus in a volume of 200 μA in IMDM/2% FCS.
Flow cytometry. Immunostaining and flow cytometry analyses were performed according to standard procedures and analyzed on a FacsCanto flow cytometer (BD Biosciences). Anti-Ly5.2 (clone 104, BD Biosciences, FITC conjugated) and anti-Ly5.1 (clone A20, BD Biosciences, PE conjugated) monoclonal antibodies were used to distinguish donor from recipient and competitor cells. For lineage analysis in hematopoietic tissues, anti-CD3ε (clone 145-2C11, PE-Cy7 conjugated), anti-B220 (clone RA3-6B2, APC conjugated), anti-CD11b (clone M1/70, APC-Cy7 conjugated) and anti-Gr-1 (clone RB6-8C5, APC-Cy7 conjugated, all from BD Biosciences) were used.

[3] = test system: BM derived progenitor cells adhering to FBMD-1 stromal cells; test: CAFC progenitor adhesion assay on FBMD-1 stroma; type: cell-based, mice; conditions: BM derived HSPCs from G-CSF treated animals
Procedure: CAFC progenitor adhesion assays. FBMD-1 cells were seeded in IMDM supplemented with 15% FCS and 5% horse serum (Gibco) at a density of 1000 cells per well in a 96 well plate. BM cells were plated onto the FBMD-1 stroma cell line at 3000, 1500, 750 and 375 cells per well at 15 wells per cell concentration in CAFC medium (IMDM, supplemented with 20% horse serum (Gibco) and 10^−5 M hydrocortisone (Sigma)). To determine progenitor cell adhesion, non-adherent cells were washed off the FBMD-1 stroma after 2 hours and fresh CAFC medium was added to each well. The frequency of total HSPCs and adherent HSPCs was determined by counting the frequency of cobblestone areas at day 7 on the FBMD-1 stroma cell line.

[4] = test system: Cdc42; test: Rho-GTPase effector domain pull-down assay, Cdc42; type: in vivo, mice; conditions: for Cdc42 activity (GTP-bound form) in BM cells: in vivo in G-CSF treated animals, compared to G-CSF treatment alone (FIG. 7c, 7d)
Procedure: (§1) Rho-GTPase effector domain pull-down assays. Relative levels of GTP-bound RAC1, RAC2 and CDC42 were determined by an effector pull-down assay. Briefly, low density bone marrow cells (1×107) were lysed in a Mg2+ lysis/wash buffer (Upstate cell signaling solutions) containing 10% glycerol, 25 mM sodium fluoride, 1 mM sodium orthovanadate and a protease inhibitor cocktail (Roche Diagnostics). Samples were incubated with PAK-1 binding domain/agarose beads and bound (activated) as well as unbound (non-activated) Rho GTPases were probed by immunoblotting with antibodies specific for RAC1 (Upstate), RAC2 (Novus Biologicals) and CDC42 (BD Biosciences). Activated protein was normalized to total protein and β-actin (Sigma) and the relative amount was quantified by densitometry.

[5] = test system: Rac1; test: Rho-GTPase effector domain pull-down assay, Rac1; set-up: species or system mice; conditions: in vivo in G-CSF treated animals (data not shown)
Procedure: as §1

[6] = test system: Rac2; test: Rho-GTPase effector domain pull-down assay, Rac2; set-up: species or system mice; conditions: in vivo in G-CSF treated animals (data not shown)
Procedure: as §1

[7] = target: epidermal growth factor receptor (EGFR), mouse, wild type, on hematopoietic stem and progenitor cells (mouse) (UniProt Q01279); test: cell-based or functional assay
[8] = test system: EGFR; test: EGFR expression in BM HSPCs by real time Q-RT-PCR; type: in vivo, mice; conditions: upon G-CSF treatment (FIG. 3a)
From the text: Whole genome expression analysis. RNA from sorted Lin-C-Kit+ cells were obtained with the Qiagen RNA assay micro kit according to the protocol of the manufacturer. RNA was subsequently linear amplified by the Affymetrix core at CCHMC and reverse transcribed with a Nugene Kit according to the manufacturer protocol. Labeled cDNA was then hybridized to and MOE430 array (Affymetrix) and raw expression data collected. Affymetrix .CEL files of the respective microarrays were imported into the statistical programming language R (www.r-project.org) using the affy Bioconductor (www.bioconductor.org) package. The data were then pre-processed (log2-transformed, background corrected, quantile normalized and summarized) using the rma function of the affy package. Affymetrix probes were filtered and re-grouped during summarization according to RefSeq annotation using custom chip description files (.CDF) for the MOE430 array provided by the Molecular and Behavioral Neuroscience Institute of the University of Michigan (Microarray Lab), http://brainarray.mbni.med.umich.edu/Brainarray/Database/CustomCDF/genomic_curated_CDF.asp). The expression level of the EGFR was subsequently confirmed by a Taqman real time PCR assay kit from Applied Biosystems (Assay ID: Mm01187863_g1)

- level of the GTP bound form of Rac1 [5]: did not detect a significant change
- level of the GTP bound form of Rac2 [6]: did not detect a significant change
Molecule: C#Cc1cccc(Nc2ncnc3cc(OCCOC)c(OCCOC)cc23)c1 [Erlotinib, reference compound]
- mobilization efficiency of progenitor cells ([1]; Erlotinib 2.5-10 mg/kg over last 3 days of G-CSF regimen vs G-CSF (FIG. 5e)): significantly increased
- mobilization efficiency of stem cells ([2]; Erlotinib 2.5-10 mg/kg over last 3 days of G-CSF regimen vs G-CSF, competitive transplantation read-out): significantly increased
- adhesion of progenitor cells to stroma ([3]; Erlotinib 10 mM (FIG. 7b)): significantly reduced adhesion
- Cdc42 activity (GTP-bound form) in BM cells [4]: significant decrease

- level of the GTP bound form of Rac1 [5]: did not detect a significant change
- level of the GTP bound form of Rac2 [6]: did not detect a significant change
Molecule: EGF: Murine recombinant EGF (epidermal growth factor), activating ligand of EGFR
- reduction of mobilization efficiency of progenitor cells ([1]; G-CSF stimulated animals, single dose EGF 0.8 μg/g on last day of G-CSF regimen (FIG. 3b)): approx. 4 fold
- mobilization efficiency of progenitor cells ([1]; G-CSF stimulated animals, single dose EGF 0.2-1.0 on last injection day of G-CSF regimen (FIG. 3b)): dose-dependent inhibition
- sensitivity to inhibition of mobilization efficiency by EGF ([1]; congenic line 1804 compared to B6 mice, G-CSF and EGF treatment (FIG. 3g)): significantly less sensitive
- spontaneous mobilization ([1]; non-G-CSF treated animals, EGF dose range tested (data not shown)): did not restrict
- mobilization efficiency ([1]; wa2+/- mice, G-CSF plus single injection of EGF on day 5 vs G-CSF alone (FIG. 3d)): unaffected
- mobilization efficiency ([1]; wild type mice, G-CSF plus single injection of EGF on day 5 vs G-CSF alone (FIG. 3c)): significantly reduced
- reduction of contribution to chimerism 3 months post transplant (stem cells mobilized to PB) ([2]; G-CSF plus EGF (0.8 μg/g) vs G-CSF alone, equal volumes of blood (FIG. 3f)): approx. 5 fold
- adhesion of progenitor cells to stroma ([3]; EGF 200 ng/ml (FIG. 7a)): significantly enhanced adhesion
- Cdc42 activity (GTP-bound form) in BM cells [4]: significant increase

- mobilization efficiency of progenitor cells in G-CSF stimulated animals (CFC in peripheral blood) (fold reduction) [7]: 4
- stem cell mobilization to PB (donor chimerism 3 months after competitive transplant) [7]: < 5 fold less
Molecule: Murine recombinant EGF (epidermal growth factor) (from UniProt P01132 977-1029) (ligand)

B1: G-CSF: huG-CSF (Amgen), granulocyte colony-stimulating factor (protein, UniProt P09919 31-207, looked up)
Granulocyte …: TPLGPASSLPQSFLLKCLEQVRKIQGDGAALQEKLVSECATYKLCHPEELVLLGHSLGIPWAPLSSCPSQALQLAGCLSQLHSGLFLYQGLLQALEGISPELGPTLDTLQLDVADFATTIWQQMEELGMAPALQPTQGAMPAFASAFQRRAGGVLVASHLQSFLEVSYRVLRHLAQP
- Cdc42 activity in LD-BM cells ([4]; B6 animals, G-CSF treated relative to control non-treated animals (FIG. 7e)): significantly increased
- Cdc42 activity in LD-BM cells ([4]; line 1804 animals upon G-CSF treatment (FIG. 7e)): not being altered
- EGFR expression levels in BM HSPCs [8]: decreased
